Data reported in US5889148A, “Antibiotic peptides” (priority 1995, dated 1999).
Values after ≈ are worked out from the molar mass of the structure shown. Non-standard residues stand in square brackets, D forms with d. No end group written: not given here. Aib = CC(C)(N)C(=O)O

What was measured:
[1] = tested on: Candida albicans (ATCC 36232); experiment: MIC test, antifungal activity; format: cell-based
Protocol: (§1) Antibacterial and antifungal activities of the peptides were determined by employing MIC test as follows:
(§2) To determine antifungal activity, a test organism Candida albicans (ATCC 36232) was cultured on Sabouraud dextrose agar plate for 24 to 48 hrs, and colonies thus grown were suspended on Sabouraud dextrose medium(Gibco, USA) to have O.D.530 =0.5(3×10^6 cells) and further diluted with 100-fold to have O.D.530 =0.005(3×10^4 cells). 100 μl of Candida albicans culture thus prepared was pipetted on 96-well microplates which had already contained 100 μl of a serially diluted peptide solution.

[2] = tested on: Staphylococcus aureus (ATCC 6538); experiment: MIC test, antibacterial activity; format: cell-based
Protocol: as §1, §2
Antibacterial activity of peptide was determined analogously as above, with an exception that Staphylococcus aureus (ATCC 6538) selected as a test organism was cultured on M-3 medium(Gibco, USA) at 37° C. and cell number was adjusted to 2×10^8 cells before 100-fold dilution.

[3] = Table 3, addition of an amino acid to N-terminal of TED
[4] = Table 2, modification of N-terminal residues of TED
[5] = Table 1, peptide fragments of Tenecin
[6] = Table 4, addition of an amino acid to N-terminal of TEDF
[7] = Table 8, TEDFK derivatives of group 1
[8] = Table 7, comparison with Ketoconazole (Example 3)
[9] = Table 6, substitution of Cys in TEDFK with Aib
[10] = Table 9, TEDFK derivatives of group 2
[11] = Table 10, TEDFK derivatives of group 3
[12] = Table 11, enantiomer, retro-inverso, D-amino acid derivatives of M22

CC(=O)N1CCN(c2ccc(OCC3COC(Cn4ccnc4)(c4ccc(Cl)cc4Cl)O3)cc2)CC1 (centres unmarked) [Ketoconazole, reference compound]
MIC ([1]; Candida albicans, ATCC36232, Table 7, comparison with Ketoconazole (Example 3), read-out: MIC against C. albicans): 6 mg/L (≈ 11.3 µM)

AYCNGKRVCVCR--NH2 (AYCNGKRVCVCR-NH2; cysteine pairing not given here) [TEDA]
MIC C. albicans [1, 3]: 10 mg/L
MIC S. aureus [2, 3]: 10 mg/L

CNGKRVCVCR--NH2 (CNGKRVCVCR-NH2; cysteine pairing not given here) [TED15]
MIC against C. albicans [1, 4]: > 500 mg/L

DAACAAHHCLFR--NH2 (DAACAAHHCLFR-NH2; cysteine pairing not given here) [TEA]
MIC C. albicans [1, 5]: > 100 mg/L
MIC S. aureus [2, 5]: > 500 mg/L

DFYCNGKRVCVCR--NH2 (DFYCNGKRVCVCR-NH2; cysteine pairing not given here) [TEDFD]
MIC C. albicans [1, 6]: > 500 mg/L
MIC S. aureus [2, 6]: > 500 mg/L

DYCNGKRVCVCR--NH2 (DYCNGKRVCVCR-NH2; cysteine pairing not given here) [TEDD]
MIC C. albicans [1, 3]: 50 mg/L
MIC S. aureus [2, 3]: 10 mg/L

FFYCNGKRVCVCR--NH2 (FFYCNGKRVCVCR-NH2; cysteine pairing not given here) [TEDFF]
MIC C. albicans [1, 6]: 3 mg/L
MIC S. aureus [2, 6]: 5 mg/L

FKYCNGKRVCVCR--NH2 (FKYCNGKRVCVCR-NH2; cysteine pairing not given here) [M3]
MIC C. albicans [1, 7]: 12.5 mg/L
MIC S. aureus [2, 7]: 12.7 mg/L

FPYCNGKRVCVCR--NH2 (FPYCNGKRVCVCR-NH2; cysteine pairing not given here) [TEDFP]
MIC C. albicans [1, 6]: > 500 mg/L
MIC S. aureus [2, 6]: > 500 mg/L

FYCNGKRVCVCR--NH2 (FYCNGKRVCVCR-NH2; cysteine pairing not given here) [TEDF]
MIC C. albicans [1, 3]: 10 mg/L
MIC C. albicans [1, 6]: 10 mg/L
MIC S. aureus [2, 3]: 5 mg/L
MIC S. aureus [2, 6]: 5 mg/L

GKRVCVCR--NH2 (GKRVCVCR-NH2; cysteine pairing not given here) [TED11]
MIC against C. albicans [1, 4]: > 500 mg/L

KCNGKRVCVCR--NH2 (KCNGKRVCVCR-NH2; cysteine pairing not given here) [TED18]
MIC against C. albicans [1, 4]: > 500 mg/L

KFYCDGKRVCVCR--NH2 (KFYCDGKRVCVCR-NH2; cysteine pairing not given here) [M18]
MIC C. albicans [1, 7]: 12.5 mg/L
MIC S. aureus [2, 7]: 12.7 mg/L

KFYCKGKRVCVCR--NH2 (KFYCKGKRVCVCR-NH2; cysteine pairing not given here) [TEDFK-7]
MIC against C. albicans ([1]; Table 5, modification of TEDFK): 3 mg/L
MIC against C. albicans [1, 8]: 3 mg/L

KFYCNGKRICICR--NH2 (KFYCNGKRICICR-NH2; cysteine pairing not given here) [M13]
MIC C. albicans [1, 7]: 6.25 mg/L
MIC S. aureus [2, 7]: 6.35 mg/L

KFYCNGKRVCVCD--NH2 (KFYCNGKRVCVCD-NH2; cysteine pairing not given here) [TEDFK-11]
MIC against C. albicans ([1]; Table 5, modification of TEDFK): 5 mg/L
MIC against C. albicans [1, 8]: 6 mg/L

KFYCNGKRVCVCL--NH2 (KFYCNGKRVCVCL-NH2; cysteine pairing not given here) [TEDFK-10]
MIC against C. albicans ([1]; Table 5, modification of TEDFK): 5 mg/L
MIC against C. albicans [1, 8]: 6 mg/L

KFYCNGKRVCVCR--NH2 [TEDFK-8] (KFYCNGKRVCVCR-NH2; cysteine pairing not given here)
MIC against C. albicans ([1]; Table 5, modification of TEDFK): 5 mg/L
MIC against C. albicans [1, 8]: 6 mg/L

KFYCNGKRVCVCR--NH2 [TEDFK] (KFYCNGKRVCVCR-NH2; cysteine pairing not given here)
MIC C. albicans [1, 6]: 3 mg/L
MIC against C. albicans ([1]; Table 5, modification of TEDFK): 3 mg/L
MIC against C. albicans [1, 9]: 3 mg/L
MIC C. albicans [1, 7]: 6.25 mg/L
MIC C. albicans [1, 10]: 6.25 mg/L
MIC against C. albicans [1, 11]: 6.25 mg/L
MIC C. albicans [1, 12]: 6.25 mg/L
MIC S. aureus [2, 6]: 5 mg/L
MIC S. aureus [2, 7]: 6.25 mg/L
MIC S. aureus [2, 10]: 6.25 mg/L
MIC S. aureus [2, 12]: 6.25 mg/L

KFYCNGKRVCVCW--NH2 (KFYCNGKRVCVCW-NH2; cysteine pairing not given here) [M31]
MIC C. albicans [1, 7]: 12.5 mg/L
MIC S. aureus [2, 7]: 12.7 mg/L

KFYCNGKRVCV[Aib]R-NH2 (cysteine pairing not given here) [TEDFK-3A]
MIC against C. albicans [1, 9]: 20 mg/L
MIC against C. albicans [1, 8]: 12 mg/L

KFYCNGKRV[Aib]VCK-NH2 (cysteine pairing not given here) [M25]
MIC C. albicans [1, 7]: 6.25 mg/L
MIC S. aureus [2, 7]: 6.35 mg/L

KFYCNGKRV[Aib]VCR-NH2 (cysteine pairing not given here) [TEDFK-2A]
MIC against C. albicans [1, 9]: 5 mg/L
MIC against C. albicans [1, 8]: 6 mg/L

KFYCNGRVCVCR--NH2 (KFYCNGRVCVCR-NH2; cysteine pairing not given here) [TEDFK-2]
MIC against C. albicans ([1]; Table 5, modification of TEDFK): 5 mg/L
MIC against C. albicans [1, 8]: 6 mg/L

KFYCNKKRVCVCR--NH2 (KFYCNKKRVCVCR-NH2; cysteine pairing not given here) [TEDFK-5]
MIC against C. albicans ([1]; Table 5, modification of TEDFK): 5 mg/L
MIC against C. albicans [1, 8]: 3 mg/L

KFYCNKRVCVCR--NH2 (KFYCNKRVCVCR-NH2; cysteine pairing not given here) [TEDFK-1]
MIC against C. albicans ([1]; Table 5, modification of TEDFK): 5 mg/L

KFYCNLKRVCVCR--NH2 (KFYCNLKRVCVCR-NH2; cysteine pairing not given here) [TEDFK-4]
MIC against C. albicans ([1]; Table 5, modification of TEDFK): 5 mg/L

KFYCNPGPVCVCR--NH2 (KFYCNPGPVCVCR-NH2; cysteine pairing not given here) [TEDFK-9]
MIC against C. albicans ([1]; Table 5, modification of TEDFK): 20 mg/L
MIC against C. albicans [1, 8]: 12 mg/L

KFYCNPKRVCVCR--NH2 (KFYCNPKRVCVCR-NH2; cysteine pairing not given here) [TEDFK-3]
MIC against C. albicans ([1]; Table 5, modification of TEDFK): 5 mg/L
MIC against C. albicans [1, 8]: 6 mg/L

KFYCNWKRVCVCR--NH2 (KFYCNWKRVCVCR-NH2; cysteine pairing not given here) [M30]
MIC C. albicans [1, 7]: 12.5 mg/L
MIC S. aureus [2, 7]: 12.7 mg/L

KFYCVGKRVCVCR--NH2 (KFYCVGKRVCVCR-NH2; cysteine pairing not given here) [TEDFK-6]
MIC against C. albicans ([1]; Table 5, modification of TEDFK): 5 mg/L
MIC against C. albicans [1, 8]: 6 mg/L

KFY[Aib]KGKRVCVCR-NH2 (cysteine pairing not given here) [M17]
MIC C. albicans [1, 7]: 6.25 mg/L
MIC S. aureus [2, 7]: 6.35 mg/L

KFY[Aib]KKVCVCK-NH2 (cysteine pairing not given here) [M8]
MIC C. albicans [1, 7]: 3.12 mg/L
MIC S. aureus [2, 7]: 3.16 mg/L

KFY[Aib]NGKRVCVCR-NH2 (cysteine pairing not given here) [TEDFK-1A]
MIC against C. albicans [1, 8]: 2 mg/L

KGKRVCVCR--NH2 (KGKRVCVCR-NH2; cysteine pairing not given here) [TED12]
MIC against C. albicans [1, 4]: > 500 mg/L

KKYCNGKRVCVCR--NH2 (KKYCNGKRVCVCR-NH2; cysteine pairing not given here) [M1]
MIC C. albicans [1, 7]: 3.12 mg/L
MIC S. aureus [2, 7]: 3.16 mg/L

KKYCNKKCVCK--NH2 [M5] (KKYCNKKCVCK-NH2; cysteine pairing not given here)
MIC C. albicans [1, 7]: 3.12 mg/L
MIC S. aureus [2, 7]: 3.16 mg/L

KKYCNKKCVCK--NH2 [M6] (KKYCNKKCVCK-NH2; cysteine pairing not given here)
MIC C. albicans [1, 7]: 3.12 mg/L
MIC S. aureus [2, 7]: 3.16 mg/L

KKYCNXRVCVCR--NH2 [M4]
MIC C. albicans [1, 7]: 3.12 mg/L
MIC S. aureus [2, 7]: 3.16 mg/L

KKYIKKVFVFk--NH2 [M22-7]
MIC C. albicans [1, 12]: 3.12 mg/L
MIC S. aureus [2, 12]: 3.11 mg/L

KKYIVFVFK--NH2 (KKYIVFVFK-NH2) [M33]
MIC against C. albicans [1, 11]: 3.12 mg/L

KKYIkkVFVFK--NH2 [M22-27]
MIC C. albicans [1, 12]: 3.11 mg/L
MIC S. aureus [2, 12]: 3.17 mg/L

KKyIKKVFVFK--NH2 [M22-26]
MIC C. albicans [1, 12]: 3.15 mg/L
MIC S. aureus [2, 12]: 3.16 mg/L

KPYCNGKRVCVCR--NH2 (KPYCNGKRVCVCR-NH2; cysteine pairing not given here) [M2]
MIC C. albicans [1, 7]: 6.25 mg/L
MIC S. aureus [2, 7]: 6.35 mg/L

KWYCNGKRVCVCR--NH2 (KWYCNGKRVCVCR-NH2; cysteine pairing not given here) [M26]
MIC C. albicans [1, 7]: 6.25 mg/L
MIC S. aureus [2, 7]: 6.35 mg/L

KYCNGKRVCVCR--NH2 (KYCNGKRVCVCR-NH2; cysteine pairing not given here) [TEDK]
MIC C. albicans [1, 3]: 5 mg/L
MIC S. aureus [2, 3]: 5 mg/L

KYCNGKRVCVCRK--NH2 (KYCNGKRVCVCRK-NH2; cysteine pairing not given here) [M16]
MIC C. albicans [1, 7]: 6.25 mg/L
MIC S. aureus [2, 7]: 6.35 mg/L

LCNGKRVCVCR--NH2 (LCNGKRVCVCR-NH2; cysteine pairing not given here) [TED17]
MIC against C. albicans [1, 4]: 100 mg/L

LFYCNGKRVCVCR--NH2 (LFYCNGKRVCVCR-NH2; cysteine pairing not given here) [TEDFL]
MIC C. albicans [1, 6]: 100 mg/L
MIC S. aureus [2, 6]: 30 mg/L

LSVEAKGVKLGGGYCNGKRVCVCR--NH2 (LSVEAKGVKLGGGYCNGKRVCVCR-NH2; cysteine pairing not given here) [TEQ]
MIC C. albicans [1, 5]: > 100 mg/L
MIC S. aureus [2, 5]: > 500 mg/L
